The values below are quoted from earlier work in paper PMC3800486 (Amino acids, 2013).

The data set deals with polo-like kinase 1 (Plk1) polo box domain (PBD). To be noted: previously shown; ref Yun et al. 2009; Liu et al. 2011; Liu et al. 2012b, a.

Turning to Ac-Pro-Leu-His-Ser-Pmab-amide, the “affinity for the Plk1 PBD (in words)” value is on record as “good affinity”.
